Like-named read-outs stand apart in the source and are kept apart here.
Legend:
[1] = biological target: T1, MraY from S. aureus (Staphylococcus aureus, UniProt Q2FZ93); design: method as in PMID 29438582; conditions: reference compound in Table 1; same value as given in b6; read-out: IC50, in vitro inhibitory activity against MraY from S. aureus; cited from earlier work
T1 construct: made in house; host or cells: E. coli Lemo21

[2] = tested on: E. coli; assay: Antibacterial activity (MIC) against E. coli; type: cell-based; conditions: Escherichia coli, not active
Description: Muraymycin analogues 10–17 were also studied for their antibacterial activities against E. coli, but were not active (MIC > 50 μg/mL).

[3] = biological target: T1, MraY from S. aureus; assay: Fluorescence-based in vitro MraY inhibition assay (dansylated Park's nucleotide, crude membrane preparation); type: biochemical; conditions: for IC50: crude membrane preparation of MraY heterologously overexpressed in E. coli, triplicates, mean ± standard deviation, read-out: IC50, in vitro inhibitory activity against MraY from S. aureus; for fold weaker MraY inhibition than (6′S)-counterpart: (6′R)-derivatives 12 and 13 vs. 10 and 11, respectively
Description: Target compounds 10–17 were tested in vitro for their inhibitory potency towards the bacterial target enzyme MraY. Therefore, a previously reported fluorescence-based assay was employed, using dansylated Park’s nucleotide and MraY from S. aureus (recombinantly overexpressed in E. coli).
The overexpression of MraY was performed as described before. A plasmid containing the mraY gene was transformed into E. coli Lemo21 cells, which were plated on lysogeny broth (LB) agar containing kanamycin (50 μg/mL) and chloramphenicol (30 μg/mL). A single colony was picked to induce an overnight culture (10 mL) of LB media containing kanamycin (50 μg/mL) and chloramphenicol (30 μg/mL), which was incubated at 37 °C and 180 rpm for 16 h. A culture of LB media (500 mL) containing kanamycin (50 μg/mL), chloramphenicol (30 μg/mL), and L-rhamnose (1 mM) was inoculated with the overnight culture (500 μL) and then grown at 37 °C and 180 rpm to OD600 0.6. Subsequently, MraY expression was induced with IPTG (1 mM) and the culture was incubated at 37 °C and 180 rpm for 4 h. Cells were then centrifuged and the pellet was resuspended in buffer A (50 mM Tris-HCl buffer pH 7.5, 1 mM MgCl2, 2 mM β-mercaptoethanol, 15 mL overall). Egg white lysozyme (spatula tip), DNAse I (spatula tip), and cOmplete^TM EDTA-free protease inhibitor cocktail (one tablet) were added. Cells were lysed using sonication and then incubated at 4 °C for 30 min. The lysate was centrifuged and the supernatant was centrifuged again. The resultant pellet was resuspended in buffer A (1.7 mL), flash frozen in liquid nitrogen and stored at −80 °C (aliquots of 20 μL). This MraY-containing crude membrane preparation (overall protein concentration ~20.5 mg/mL as determined by OD280) was diluted with water (final overall protein concentration 1 mg/mL) and then directly used for MraY activity assays without further purification.
The assay was performed as described before. The crude membrane preparation of MraY from S. aureus (1 μL, vide supra) was added to a mixture of undecaprenyl phosphate (50 μM), dansylated Park′s nucleotide (7.5 μM), and the tested compound (at varying concentrations) in buffer (100 mM Tris-HCl buffer pH 7.5, 200 mM KCl, 10 mM MgCl2, 0.1% Triton X-100, 20 μL overall). Fluorescence of the assay mixtures over time was monitored at λex = 355 nm and λem = 520 nm (plate reader, 384-well plate format). MraY activity at a certain inhibitor concentration was determined using linear regression from 0 to 2 min. This measure of activity was plotted against logarithmic inhibitor concentrations and fitted using a sigmoidal fit. This procedure furnished IC50 values with standard deviations.

T1 sequence (Q2FZ93 whole entry): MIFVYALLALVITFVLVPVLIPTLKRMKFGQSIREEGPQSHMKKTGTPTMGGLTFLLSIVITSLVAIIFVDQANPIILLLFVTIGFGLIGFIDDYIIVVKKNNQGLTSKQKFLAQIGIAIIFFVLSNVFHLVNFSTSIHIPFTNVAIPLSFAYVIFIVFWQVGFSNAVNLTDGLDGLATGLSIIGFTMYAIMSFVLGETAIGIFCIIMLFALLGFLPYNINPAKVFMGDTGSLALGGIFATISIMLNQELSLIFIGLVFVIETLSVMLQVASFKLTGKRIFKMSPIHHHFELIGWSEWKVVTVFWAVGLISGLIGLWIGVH

SMILES: CC(C)[C@H](NC(=O)N[C@H](C(=O)N[C@H](C(=O)NCCCN[C@@H](C[C@H]1O[C@@H](n2ccc(=O)[nH]c2=O)[C@H](O)[C@@H]1O)C(=O)O)[C@@H](O)C(C)C)[C@@H]1CCNC(=N)N1)C(=O)O [Compound 9]
- IC50 [1]: 0.095 ± 0.019 µM

SMILES: CC(C)C[C@H](NC(=O)[C@H](CCCCN)NC(=O)N[C@H](C(=O)O)C(C)C)C(=O)NCCCN[C@@H](C[C@H]1O[C@@H](n2ccc(=O)[nH]c2=O)[C@H](O)[C@@H]1O)C(=O)O [Compound 10, 5′-deoxy-L-Leu muraymycin analogue]
- MIC [2]: > 50 µg/mL
- fold loss in inhibitory potency (MraY) vs. 9 ([3]; compounds 10 vs. 9, epicapreomycidine replaced by L-lysine, nonhydroxylated L-leucine): ~ 26 fold
- IC50 [3]: 2.5 ± 0.6 µM

SMILES: CC(C)C[C@@H](NC(=O)[C@H](CCCCN)NC(=O)N[C@H](C(=O)O)C(C)C)C(=O)NCCCN[C@@H](C[C@H]1O[C@@H](n2ccc(=O)[nH]c2=O)[C@H](O)[C@@H]1O)C(=O)O [Compound 11, 5′-deoxy-D-Leu muraymycin analogue]
- MIC [2]: > 50 µg/mL
- IC50 [3]: 2 ± 0.6 µM

SMILES: CC(C)C[C@H](NC(=O)[C@H](CCCCN)NC(=O)N[C@H](C(=O)O)C(C)C)C(=O)NCCCN[C@H](C[C@H]1O[C@@H](n2ccc(=O)[nH]c2=O)[C@H](O)[C@@H]1O)C(=O)O [Compound 12, 5′-deoxy-6′-epi-L-Leu muraymycin analogue]
- MIC [2]: > 50 µg/mL
- fold weaker MraY inhibition than (6′S)-counterpart [3]: 15 fold
- IC50 [3]: 38 ± 6 µM

SMILES: CC(C)C[C@@H](NC(=O)[C@H](CCCCN)NC(=O)N[C@H](C(=O)O)C(C)C)C(=O)NCCCN[C@H](C[C@H]1O[C@@H](n2ccc(=O)[nH]c2=O)[C@H](O)[C@@H]1O)C(=O)O [Compound 13, 5′-deoxy-6′-epi-D-Leu muraymycin analogue]
- MIC [2]: > 50 µg/mL
- fold weaker MraY inhibition than (6′S)-counterpart [3]: 12 fold
- IC50 [3]: 24 ± 9 µM

SMILES: CC(C)C[C@H](NC(=O)[C@H](CCCCN)NC(=O)N[C@H](C(=O)O)C(C)C)C(=O)NCCCN[C@@H](C(=O)O)[C@H](O)[C@H]1O[C@@H](n2ccc(=O)[nH]c2=O)[C@H](O)[C@@H]1O [Compound 14, 6′-epi-L-Leu muraymycin analogue]
- MIC [2]: > 50 µg/mL
- IC50 [3]: 10 ± 4 µM

SMILES: CC(C)C[C@@H](NC(=O)[C@H](CCCCN)NC(=O)N[C@H](C(=O)O)C(C)C)C(=O)NCCCN[C@@H](C(=O)O)[C@H](O)[C@H]1O[C@@H](n2ccc(=O)[nH]c2=O)[C@H](O)[C@@H]1O [Compound 15, 6′-epi-D-Leu muraymycin analogue]
- MIC [2]: > 50 µg/mL
- IC50 [3]: 10 ± 2 µM

SMILES: CC(C)C[C@H](NC(=O)[C@H](CCCCN)NC(=O)N[C@H](C(=O)O)C(C)C)C(=O)NCCCN[C@H](C(=O)O)[C@@H](O)[C@H]1O[C@@H](n2ccc(=O)[nH]c2=O)[C@H](O)[C@@H]1O [Compound 16, 5′-epi-L-Leu muraymycin analogue]
- MIC [2]: > 50 µg/mL
- fold more active (MraY) than D-leucine epimer 17 ([3]; 16 vs. 17): ~ 3 fold
- IC50 [3]: 6.2 ± 2.8 µM

SMILES: CC(C)C[C@@H](NC(=O)[C@H](CCCCN)NC(=O)N[C@H](C(=O)O)C(C)C)C(=O)NCCCN[C@H](C(=O)O)[C@@H](O)[C@H]1O[C@@H](n2ccc(=O)[nH]c2=O)[C@H](O)[C@@H]1O [Compound 17, 5′-epi-D-Leu muraymycin analogue]
- MIC [2]: > 50 µg/mL
- IC50 [3]: 21 ± 4 µM

From publication PMC6278576, “Analogues of Muraymycin Nucleoside Antibiotics with Epimeric Uridine-Derived Core Structures” (Molecules, 2018)
